# Experimental data: patent US10858335B2 (Rigel Pharmaceuticals, Inc., priority 2014, dated 2020)
# System: GDF8 signaling (p-SMAD-3 (Ser423/425))
# Assay: AlphaScreen SureFire SMAD3 (p-Ser423/425) assay, GDF8-stimulated cells (GDF pSMAD)
# Assay type: cell-based
# Conditions: Mus musculus, MPC-11, GDF8-stimulated pSMAD3, MPC11; tested as the salt form given; read-out: GDF pSMAD (MPC11) (μM), inhibition of GDF8 signaling
row,IC50 [µM],Compound
1,0.577,"Cc1ccc(C(F)F)cc1-c1ncccc1-c1ccc2ncnc(N)c2c1 [compound 1024, 6-(2-(5-(difluoromethyl)-2-methylphenyl)pyridin-3-yl)quinazolin-4-amine]"
2,0.0411,"Nc1ncnc2ccc(-c3cccnc3-c3cccc(OC(F)F)c3)cc12 [compound 982, 6-(2-(3-(difluoromethoxy)phenyl)pyridin-3-yl)quinazolin-4-amine]"
3,0.416,"Nc1ncnc2ccc(-c3cccnc3-c3cc(OC(F)(F)F)ccc3F)cc12 [compound 1014, 6-(2-(2-fluoro-5-(trifluoromethoxy)phenyl)pyridin-3-yl)quinazolin-4-amine]"
4,5.81,"COc1cc(-c2ncccc2-c2ccc3ncnc(N)c3c2)c(Cl)cc1F [compound 1008, 6-(2-(2-chloro-4-fluoro-5-methoxyphenyl)pyridin-3-yl)quinazolin-4-amine]"
5,0.203,"Cc1ccc(F)c(-c2ncccc2-c2ccc3ncnc(N)c3c2)c1 [compound 1004, 6-(2-(2-fluoro-5-methylphenyl)pyridin-3-yl)quinazolin-4-amine]"

# Same assay, conditions: Mus musculus, MPC-11, MPC11; GDF8-stimulated; p-SMAD3 AlphaScreen; read-out: GDF pSMAD (MPC11) (inhibition of GDF8 signaling)
row,Compound,IC50 [µM]
1,"Cc1cccc(-c2cccnc2-c2ccc3nc[nH]c3c2)n1 [compound 521, 6-(6-Methyl-[2,3′-bipyridin]-2′-yl)-1H-benzo[d]imidazole]",8.06
2,"Cc1cc(-c2ncccc2-c2ccc3ncnc(OCC#N)c3c2)ccc1F [compound 430, 2-((6-(2-(4-Fluoro-3-methylphenyl)pyridin-3-yl)quinazolin-4-yl)oxy)acetonitrile]",0.475
3,"Cc1cc(C)cc(-c2ncccc2-c2ccc3[nH]ncc3c2)c1 [Compound 71, 5-[2-(3,5-Dimethylphenyl)pyridin-3-yl]-1H-indazole]",7.01
4,"COc1ncnc2ccc(-c3cccnc3-c3cccc(C4CC4)c3)cc12 [compound 377, 6-(2-(3-Cyclopropylphenyl)pyridin-3-yl)-4-methoxyquinazoline]",0.172
5,"Cc1cccc(-c2ncccc2-c2ccc3c(c2)OCO3)c1 [Compound 109, 3-(Benzo[d][1,3]dioxol-6-yl)-2-m-tolylpyridine]",17.2
6,"FC(F)(F)c1cccc(-c2ncccc2-c2ccc3nccn3c2)c1 [Compound 199, 6-(2-(3-(Trifluoromethyl)phenyl)pyridin-3-yl)H-imidazo[1,2-a]pyridine]",1.16
7,"Cc1cccc(-c2ncccc2-c2ccc3ncsc3c2)c1 [Compound 160, 6-(2-m-Tolylpyridin-3-yl)benzo[d]thiazole]",0.0843
8,"Cc1cc(-c2ncccc2-c2ccc3ncc(C(=O)NC4CCOCC4)n3c2)ccc1F [compound 593, 6-(2-(4-Fluoro-3-methylphenyl)pyridin-3-yl)-N-(tetrahydro-2H-pyran-4-yl)imidazo[1,2-a]pyridine-3-carboxamide]",1.86
9,"Cc1cnc2ccc(-c3cccnc3-c3cccc(C4CC4)c3)cn12 [compound 529, 6-(2-(3-Cyclopropylphenyl)pyridin-3-yl)-3-methylimidazo[1,2-a]pyridine]",0.323
10,"Cc1cc(-c2ncccc2-c2ccc3ncnc(NCCCN4CCOCC4)c3c2)ccc1F [compound 424, 6-(2-(4-Fluoro-3-methylphenyl)pyridin-3-yl)-N-(3-morpholinopropyl)quinazolin-4-amine]",2.43
11,"COc1ccc(CNc2cnc(-c3ccc(F)c(C)c3)c(-c3ccc4ncsc4c3)c2)cn1 [compound 324, 5-(Benzo[d]thiazol-6-yl)-6-(4-fluoro-3-methylphenyl)-N-((6-methoxypyridin-3-yl)methyl)pyridin-3-amine]",0.461
12,"Cc1cccc(-c2ncccc2-c2ccc3ncoc3c2)c1 [Compound 181, 6-(2-m-Tolylpyridin-3-yl)benzo[d]oxazole]",0.539
13,"Cc1cccc(-c2ncccc2-c2ccc3ncn(C)c3c2)c1 [Compound 186, 1-methyl-6-(2-m-tolylpyridin-3-yl)-1H-benzo[d]imidazole]",0.3
14,"Cc1cc(-c2ncc(NCc3c[nH]c4ncccc34)cc2-c2ccc3ncsc3c2)ccc1F [compound 330, N-((1H-Pyrrolo[2,3-b]pyridin-3-yl)methyl)-5-(benzo[d]thiazol-6-yl)-6-(4-fluoro-3-methylphenyl)pyridin-3-amine]",0.457
15,"Cc1cc(-c2ncc(NCc3ccc(N4CCN(C)CC4)cc3)cc2-c2ccc3ncsc3c2)ccc1F [compound 373, 5-(Benzo[d]thiazol-6-yl)-6-(4-fluoro-3-methylphenyl)-N-(4-(4-methylpiperazin-1-yl)benzyl)pyridin-3-amine]",1.2
16,"[2H]C([2H])([2H])c1cccc(-c2ncccc2-c2ccc3ncc(C#N)n3c2)c1 [compound 601, 6-(2-(3-(Methyl-d3)phenyl)pyridin-3-yl)imidazo[1,2-a]pyridine-3-carbonitrile]",0.141
17,Cc1cn2cc(-c3cccnc3-c3cccc(C(F)(F)F)c3)ccc2n1 [compound 534],18
18,"Cc1cc(-c2ncc(NCc3ccc(CN4CCOCC4)cc3)cc2-c2ccc3ncsc3c2)ccc1F [compound 358, 5-(Benzo[d]thiazol-6-yl)-6-(4-fluoro-3-methylphenyl)-N-(4-(morpholinomethyl)benzyl)pyridin-3-amine]",0.863
19,"Cc1cc(-c2ncccc2-c2ccc3ncnc(OCCCN4CCCC4=O)c3c2)ccc1F [compound 431, 1-(3-((6-(2-(4-Fluoro-3-methylphenyl)pyridin-3-yl)quinazolin-4-yl)oxy)propyl)pyrrolidin-2-one]",0.374

# Results, then the compound that gave them:
row,IC50 [µM],Compound
1,3.88,"Fc1ccccc1-c1ncccc1-c1ccc2[nH]ncc2c1 [Compound 61, 5-(2-(2-Fluorophenyl)pyridin-3-yl)-1H-indazole]"
2,1.52,"N#Cc1cnc2ccc(-c3cccnc3-c3cc(F)c(F)cc3F)cn12 [compound 695, 6-(2-(2,4,5-Trifluorophenyl)pyridin-3-yl)imidazo[1,2-a]pyridine-3-carbonitrile]"
3,0.0947,"Cc1cc(-c2ncccc2-c2ccc3ncsc3n2)ccc1F [compound 303, 5-(2-(4-Fluoro-3-methylphenyl)pyridin-3-yl)thiazolo[5,4-b]pyridine]"
4,0.228,"Cc1cc(-c2ncccc2-c2ccn3ncc(C(=O)NCCCO)c3c2)ccc1F [compound 706, 5-(2-(4-Fluoro-3-methylphenyl)pyridin-3-yl)-N-(3-hydroxypropyl)pyrazolo[1,5-a]pyridine-3-carboxamide]"
5,0.41,"Cc1cc(-c2ncccc2-c2ccc3nccn3n2)ccc1F [compound 934, 6-(2-(4-Fluoro-3-methylphenyl)pyridin-3-yl)imidazo[1,2-b]pyridazine]"
6,1.11,"Clc1ccc(Cl)c(-c2ncccc2-c2ccc3ncnn3c2)c1 [compound 771, 6-(2-(2,5-Dichlorophenyl)pyridin-3-yl)-[1,2,4]triazolo[1,5-a]pyridine]"
7,1.16,"Nc1ncnc2ccc(-c3cccnc3-c3ccc(F)cc3F)cc12 [compound 455, 6-(2-(2,4-Difluorophenyl)pyridin-3-yl)quinazolin-4-amine]"
8,0.347,"Cc1cccc(-c2ncccc2-c2ccc3ncnn3c2)c1 [Compound 192, 6-(2-m-Tolylpyridin-3-yl)-[1,2,4]triazolo[1,5-a]pyridine]"
9,0.096,"Cc1cnc2ccc(-c3cccnc3-c3cccc(Cl)c3)cn12 [compound 765, 6-(2-(3-Chlorophenyl)pyridin-3-yl)-3-methylimidazo[1,2-a]pyridine]"
10,0.795,"Nc1nc2ccc(-c3cccnc3-c3ccc(F)c(Cl)c3)nc2s1 [compound 302, 5-(2-(3-Chloro-4-fluorophenyl)pyridin-3-yl)thiazolo[5,4-b]pyridin-2-amine]"
11,1.27,"Fc1ccc(-c2ncccc2-c2ccn3ncnc3c2)cc1Cl [compound 733, 7-(2-(3-Chloro-4-fluorophenyl)pyridin-3-yl)-[1,2,4]triazolo[1,5-a]pyridine]"
12,1.84,"Fc1cnc(-c2cc(Cl)ccc2F)c(-c2ccn3ncnc3c2)c1 [compound 862, 7-(2-(5-Chloro-2-fluorophenyl)-5-fluoropyridin-3-yl)-[l 1,2,4]triazolo[1,5-a]pyridine]"
13,2.99,"Cc1cc(-c2ncc(NCCCN3CCN(C)CC3)cc2-c2ccc3ncsc3c2)ccc1F [compound 320, 5-(Benzo[d]thiazol-6-yl)-6-(4-fluoro-3-methylphenyl)-N-(3-(4-methylpiperazin-1-yl)propyl)pyridin-3-amine]"
14,0.316,"Cc1cc(-c2ncccc2-c2cnc3[nH]ncc3c2)ccc1F [Compound 78, 5-(2-(4-Fluoro-3-methylphenyl)pyridin-3-yl)-1H-pyrazolo[3,4-b]pyridine]"
15,0.632,"Cc1cc(-c2ncccc2-c2ccc3ncc(=O)[nH]c3c2)ccc1F [compound 891, 7-(2-(4-Fluoro-3-methylphenyl)pyridin-3-yl)quinoxalin-2(1H)-one]"
16,0.749,"Cc1cc(-c2ncc(NC(=O)c3cccnc3)cc2-c2ccc3ncsc3c2)ccc1F [compound 315, N-(5-(Benzo[d]thiazol-6-yl)-6-(4-fluoro-3-methylphenyl)pyridin-3-yl)nicotinamide]"
17,0.314,"Fc1cc(F)c(-c2ncccc2-c2ccc3ncsc3c2)cc1Cl [compound 718, 6-(2-(5-Chloro-2,4-difluorophenyl)pyridin-3-yl)benzo[d]thiazole]"
18,10.6,"Cc1cc(-c2ncccc2-c2ccc3c(cnn3C(=O)NCCN)c2)ccc1F [compound 639, N-(2-Aminoethyl)-5-(2-(4-fluoro-3-methylphenyl)pyridin-3-yl)-1H-indazole-1-carboxamide]"
19,0.208,"Cc1cc(-c2ncccc2-c2ccc3cnc(N)nc3c2)ccc1F [compound 396, 7-(2-(4-Fluoro-3-methylphenyl)pyridin-3-yl)quinazolin-2-amine]"
20,10,"Cc1cc(-c2ncc(CN(C)C)cc2-c2ccc3nccnc3c2)ccc1F [compound 226, 1-(6-(4-Fluoro-3-methylphenyl)-5-(quinoxalin-6-yl)pyridin-3-yl)-N,N-dimethylmethanamine]"
21,1.58,"Nc1ncnc2ccc(-c3cccnc3-c3cc(F)c(F)c(F)c3)cc12 [compound 469, 6-(2-(3,4,5-Trifluorophenyl)pyridin-3-yl)quinazolin-4-amine]"
